Measurements reported in patent US20230390297A1, “USE OF NUCLEOTIDE SYNTHESIS INHIBITORS FOR TARGETED THERAPY IN MLL3/4 COMPASS MUTANT CANCER” (priority 2022, published 2023).

Tests used:
Mll3/4 KO mESCs = assay: CellTiter-Glo luminescent cell viability assay in WT and Mll3/4 KO mESCs; type: cell-based, mouse; conditions: 48 hours
Method: FIG. 3. […] (A) WT and Mll3/4 KO cells were treated with 0-2.5 μM lometrexol (LTX)−/+50 hypoxanthine (HPX) for 48 hours. CellTiter-Glo® luminescent cell viability assay was performed to determine the percentage of inhibition under these conditions. (B) WT and KO cells were treated with 0.3 μM LTX−/+50 μM HPX for 48 hours, and cells were harvested for RNA-seq. Differential gene expression analyses were performed with indicated comparisons. (C) Principal component analysis of RNA-seq in (B). (D) Hierarchical clustering heatmap showing differentially expressed genes in KO cells in comparison with WT cells.
FIG. 10. Mll3/4 KO mESCs are more sensitive to purine synthesis inhibition. (A-B) WT and Mll3/4 KO cells were treated with 0-2.5 μM lometrexol (LTX) (A) or 0-5 methotrexate (MTX) (B) for 48 hours. CellTiter-Glo® luminescent cell viability assay was performed to determine the percentage of inhibition under these conditions with three different Mll3/4 KO clones included. (C) WT and Mll3/4 KO cells were treated with 0-40 μM SHIINI for 48 hours. MTT cell viability assay was performed to determine the percentage of inhibition under these conditions with three different Mll3/4 KO clones included.

MLL3/4 ΔSET cells = assay: CellTiter-Glo viability assay in WT, MLL3/4 ΔSET and MLL3/4 KO cells; type: cell-based, mouse; conditions: 0-2.5 μM LTX, 72 hours
Excerpt: FIG. 11. […] (A) Western blot showing MLL4, MLL3, NCOA6, UTX, RbBP5 and ASH2L protein levels in WT, MLL3/4 ASET and MLL3/4 KO cells with Hsp90 as the loading control. Bulk levels of histone H3K4me1, H3K4me2, H3K4me3 and H3K27Ac were also shown. N, N-terminus; C, C-terminus. mESCs harboring deletion of the SET domains of both MLL3 and MLL4 (referred to as MLL3/4 ΔSET) were generated in our previous studies (20). (B) Western blot showing nuclear and cytoplasmic MLL4, UTX, NCOA6 and RBBP5 protein levels after cell fractionation, with MLL1 and Hsp90 serving as nuclear and cytoplasmic loading control. (C) WT, MLL3/4 ΔSET and MLL3/4 KO cells were treated with 0-2.5 μM lometrexol (LTX) for 72 hours. CellTiter-Glo® luminescent cell viability assay was performed to determine the percentage of inhibition.

[1] = system: MLL4 mutant colorectal cancer cells (SW480, DLD1, HCT116, RKO); assay: CellTiter-Glo viability assay in MLL4 wild type and MLL4 mutant colorectal cell lines; type: cell-based, human; conditions: 72 hours; LTX 0-30 μM, Piericidin A 0-10 μM, Phenformin 0-30 mM
[2] = system: RKO, HCT116, DLD1 (MLL4 mutant) and HT55, Caco2, SW1417 (MLL4 WT) cells; assay: RNA-seq in colorectal cancer cells treated with LTX; type: cell-based, human; conditions: 1 μM LTX, 24 hours
Method: FIG. 5. MLL4 mutant colorectal cancer cells are selectively sensitive to lometrexol treatment. (A) 100 μL of 0.5×10^5 cells/mL cells were seeded in 96-well plates one day before treatment. Cells were treated with 0-30 μM lometrexol (LTX) with 3× fold dilution for 72 hours. CellTiter-Glo® luminescent cell viability assay was performed to determine the percentage of inhibition under these conditions. The line plot compares sensitivity difference of all cell lines tested. (B) RKO, HCT116, DLD1, Caco2, HT55 and SW1417 cells were treated with DMSO or 1 μM LTX for 24 hours and whole cell lysates were used for western blot against cell cycle (H3 Ser10-p, CDT1, CyclinB 1, Geminin, CyclinEl, CyclinA2, p-cdc2) and apoptosis (PARP, Caspase3) markers using Hsp90 and I3-tubulin as loading control. […] (F) A subset of representative terms from the full cluster were selected and converted into a network layout. Each term is represented by a circle node, where its size is proportional to the number of input genes fall under that term, and its color represent its cluster identity. Terms with a similarity score>0.3 are linked by an edge (the thickness of the edge represents the similarity score). The network is visualized with Cytoscape with “force-directed” layout and with edge bundled for clarity. One term from each cluster is selected to have its term description shown as label.
FIG. 18. RNA-seq data in colorectal cancer cells treated with LTX. (A) Cellular morphological change in different cells treated with LTX at 1 μM for 24 hours under bring field microscope.
FIG. 19. The unique gene expression signature of MLL4 mutant cells in response to LTX treatment. (A-B) RNA-seq track examples showing the AURKA (A) and PLK1 (B) gene expression in different cell lines in response to LTX treatment. […] The 10 common genes found in the plots were defined as “lometrexol responsive mitotic gene signature” including PLK1, AURKA, CDCA3, CDC20, SFPQ, POLA1, PSRC1, KIF20A, FAM83D, and DLGAP5. (D) Volcano plots showing the 10 genes in MLL4 WT cell lines including HT55, Caco2, and SW1417.
Gene count tables were constructed using HTseq (56) with Ensembl gene annotations and used as input for edgeR 3.0.8 (57). Genes with Benjamini-Hochburg adjusted p-values less than were differentially expressed. Batch effects were removed using ComB at-seq on the raw read counts (58). Pathway analysis was performed with Metascape (59).

## Nc1nc2c(c(=O)[nH]1)C[C@@H](CCc1ccc(C(=O)N[C@@H](CCC(=O)O)C(=O)O)cc1)CN2 [lometrexol, (2S)-2-[[4-[2-[(6R)-2-amino-4-oxo-5,6,7,8-tetrahydro-3H-pyrido[2,3-d]pyrimidin-6-yl]ethyl]benzoyl]amino]pentanedioic acid]
Mll3/4 KO mESCs; LTX 0-2.5 μM, MTX 0-5, three Mll3/4 KO clones
  sensitivity of Mll3/4 KO cells compared with WT cells (percentage of inhibition of viability): elevated sensitivity to LTX in Mll3/4 KO cells
Mll3/4 KO mESCs; LTX 0-2.5 μM + 50 hypoxanthine (HPX)
  rescue of cell growth and/or viability inhibition by hypoxanthine: completely rescued by HPX
MLL3/4 ΔSET cells
  sensitivity of MLL3/4 ΔSET cells compared with WT mESCs (percentage of inhibition): indistinguishable sensitivity to LTX in comparison to WT mESCs
[1]
  sensitivity of MLL4 mutant cells compared with MLL4 wild type cells (growth inhibition): selectively more sensitive
[2]; MLL4 mutant vs WT cells
  differential gene expression change: only induced significant differential gene expression change in MLL4 mutant cells
[2]; remained the same in MLL4 WT cells
  PLK1 and AURKA gene expression: remarkably diminished in all MLL4 mutant cells
[2]; unaffected in MLL4 WT cells
  genes commonly downregulated in all MLL4 mutant cells (RKO, HCT116, DLD1): 885 genes
  genes commonly upregulated in MLL4 mutant cells (RKO, HCT116, DLD1): 707 genes
